From publication PMC10294756 (Journal of Enzyme Inhibition and Medicinal Chemistry, 2023)

Legend:
[1] = test system: HepG2; assay: MTT assay, HepG2 cells; assay type: cell-based, human; conditions: Homo sapiens, HepG2, 48 h, read-out: IC50 HepG2
[2] = test system: HuH7; assay: MTT assay, HuH7 cells; assay type: cell-based, human; conditions: Homo sapiens, Huh-7, 48 h, read-out: IC50 HuH7
[3] = test system: SMMC-7721; assay: MTT assay, SMMC-7721 cells; assay type: cell-based, human; conditions: Homo sapiens, SMMC-7721, 48 h, read-out: IC50 SMMC-7721
[4] = test system: LO2; assay: MTT assay, normal hepatocyte LO2; assay type: cell-based, human; conditions: Homo sapiens, L02, 48 h, read-out: IC50 LO2, normal liver cell line, MTT, 48 h
[5] = test system: HCC cell lines (HepG2, HuH7, and SMMC-7721); assay: MTT assay, results stated over the three HCC cell lines; assay type: cell-based; conditions: Homo sapiens, 48 h, read-out: IC50 against HCC cells (span over cell lines)
[6] = test system: transcriptional activity of Nur77 in Hela cells; assay: Dual-luciferase reporter assay; assay type: cell-based; conditions: 24 h treatment
[7] = test system: HepG2; assay: Colony formation assay, HepG2; assay type: cell-based, human; conditions: HepG2, one week
[8] = test system: HuH7; assay: Colony formation assay, HuH7; assay type: cell-based, human; conditions: HuH7, one week
[9] = test system: HuH7 cells; assay: Cell cycle analysis by flow cytometry, HuH7; assay type: cell-based, human; conditions: 10 h
[10] = test system: HepG2 cells; assay: Cell cycle analysis by flow cytometry, HepG2; assay type: cell-based, human; conditions: 10 h
[11] = test system: A549-Nur77-/- cells; assay: Cell cycle analysis by flow cytometry, A549 Nur77-/-; assay type: cell-based, human; conditions: 10 h
[12] = test system: HuH7 cells; assay: Annexin V-FITC/PI apoptosis detection assay, HuH7; assay type: cell-based, human; conditions: 24 h
[13] = test system: HepG2 cells; assay: Annexin V-FITC/PI apoptosis detection assay, HepG2; assay type: cell-based, human; conditions: HepG2, 1.0 μM, 24 h
[14] = test system: cleaved-PARP and LC3-II in HuH7 cells; assay: Western blotting, HuH7 cells; assay type: cell-based, human; conditions: HuH7, 24 h
[15] = test system: cleaved-PARP, LC3-II and Nur77 in HepG2 cells; assay: Western blotting, HepG2 cells; assay type: cell-based, human
[16] = In vivo PK study; parameters: species or system Sprague-Dawley (SD) rats
[17] = female, Sprague-Dawley, rat, plasma, iv, 2 mg/kg
[18] = female, Sprague-Dawley, rat, plasma, po, 20 mg/kg

IC50 [1]: 2.33 ± 0.14 µM | IC50 [2]: 4.09 ± 0.89 µM | IC50 [3]: 7.68 ± 1.3 µM | IC50 [5]: 2.33 to 7.68 µM | CL ([16]; SD rats, p.o. 20 mg/kg): 1986.3 ± 307.2 mL/min/kg | Vz ([16]; SD rats, p.o. 20 mg/kg): 192.55 ± 22.13 L/kg | AUC(0-inf) [16, 17]: 247 ± 72.6 ng·h/mL | Cmax [16, 17]: 293 ± 45.5 ng/mL | Tmax [16, 17]: 0.08 h | Vd [16, 17]: 22.2 ± 10.1 L/kg | clearance [16, 17]: 143 mL/min/kg | half-life [16, 17]: 1.54 ± 0.35 h | AUC(0-inf) [16, 18]: 170 ± 25.4 ng·h/mL | Cmax [16, 18]: 19.6 ± 0.97 ng/mL | Tmax [16, 18]: 5.83 ± 3.75 h | half-life [16, 18]: 1.13 ± 0.09 h
SMILES: Cc1cc(Nc2ccc(C(=O)N/N=C/c3scnc3C)cc2)c2cccc(O)c2n1 [TMHA37, (E)-4-((8-hydroxy-2-methylquinolin-4-yl)amino)-N'-((4-methylthiazol-5-yl)methylene)benzohydrazide]
IC50 [4]: 21.2 ± 1.79 µM | reporter activity [6]: significantly increased the reporter fluorescence intensity in a dose-dependent manner | colony formation [7]: significantly and dose-dependently inhibited the colony formation | colony formation [8]: significantly and dose-dependently inhibited the colony formation | cells in G2 (G2/M) ([9]; HuH7, TMHA37 1 μM): 20.07% | cells in G2 (G2/M) ([9]; HuH7, TMHA37 10 μM): 48.26% | cells in G2 (G2/M) ([10]; HepG2, TMHA37 1 μM): 26.72% | cells in G2 (G2/M) ([10]; HepG2, TMHA37 10 μM): 63.17% | TMHA37-caused G2/M arrest in Nur77-knockdown A549 cells compared to control cells [11]: significantly decreased | apoptotic cells ([12]; HuH7, 1.0 μM): 12.82% | apoptotic cells ([12]; HuH7, 10.0 μM): 69.50% | apoptotic cells [13]: 6.42% | LC3-II level [14]: dose-dependently increased the level of LC3-II | cleaved-PARP level [14]: dose-dependent upregulation of cleaved-PARP | Nur77 protein expression in cytoplasm and nucleus ([15]; HepG2, 10 μM, 3 h): increased the protein expression levels of Nur77 in both cytoplasm and nuclear | LC3-II level ([15]; HepG2, 24 h): dose-dependently increased the level of LC3-II | cleaved-PARP level ([15]; HepG2, 24 h): dose-dependent upregulation of cleaved-PARP
